{"source": "patent US20220118117A1", "about": "“MODULATORS OF METABOTROPIC GLUTAMATE RECEPTOR 4” (The General Hospital Corporation, priority 2019, published 2022)", "key": {"[1]": {"system": "other mGlu receptors (mGluR1, mGluR5, mGluR2, mGluR3, mGluR6, mGluR8)", "assay": "mGluR subtype selectivity (Ca2+ mobilization and cAMP assays)", "assay_type": "cell-based", "details": "Gq coupled: Ca2+ mobilization; Gi/o coupled: cAMP assay", "method": "Ca^2+ mobilization assay. The Gq coupled receptors (mGluR1 and mGluR5) were tested using Ca^2+ mobilization assay. mGluR1 stable cell lines were plated into poly-L-lysine (PLL) coated 384-well black clear bottom cell culture plates with complete Basal Medium Eagle (BME) buffer, which was composed of 10% dialyzed FBS, penicillin G (100 units/mL), streptomycin (100 μg/mL) with Tetracycline (1 μg/mL) at density of 20,000 cells in 40 μl per well for overnight. […] Once loaded in FLIPR (Molecular Devices), basal fluorescence was measured for 10 s, then 10 μL of test or reference compounds were added, followed by continued fluorescence measurement for an additional 120 s. […]\ncAMP assay. […] Luminescence was counted in a Trilux luminescence counter. Data were analyzed with Prizm 5.0 (GraphPad software).\nThe selectivity of 15 was also analyzed among the various mGluR subtypes, in which the Gq coupled receptors (mGluR1 and mGluR5) were tested using Ca^2+ mobilization assay and the Gi/o coupled receptors (mGluR2, mGluR3, mGluR4, mGluR6 and mGluR8) using the cAMP assay."}, "[2]": {"assay": "Log D7.4, scaled-down shake flask method using [18F]15", "assay_type": "physicochemical", "details": "octanol / phosphate buffer pH 7.4", "method": "The test tube was mixed by vortex for 2 min and then centrifuged for 2 min to fully separate the aqueous and organic phase. The samples taken from the octanol layer (0.1 mL) and the aqueous layer (1.0 mL) were saved for radioactivity measurement. An additional aliquot of the octanol layer […] was carefully transferred to a new test tube containing 0.5 mL of octanol and 2.5 mL of phosphate buffer solution (pH 7.4). The previous procedure (vortex mixing, centrifugation, sampling, and transfer to the next test tube) was repeated until six sets of aliquot samples had been prepared. The radioactivity of each sample was measured using PerkinElmer Wizard2 2480 gamma-counter. The log D of each set of samples was calculated as the following:\nLog D7.4=Log(radioactivity of octanol layer×10/radioactivity of PBS layer)\nLipophilicity has a major effect on BBB penetration, ADMET properties and pharmacological activity. […] The Log D7.4 of 15 was 3.82 as measured with a scaled-down shake flask method using [^18F]15 (Table 2) and is in the range normally considered favorable for a PET ligand. (Ref. 43)."}, "[3]": {"assay": "plasma stability", "assay_type": "in vitro ADME", "details": "rat plasma; for Plasma stability, remaining of the intact test compound: 37° C.", "method": "Briefly, each tube is added 882 μL of 1:1 diluted rat plasma with phosphate buffer (pH 7.4). 18 μL (100 μM) of DMSO stock solution of the test compound (4, 13 and 15) or positive control compound (Diltiazem) was added to make a final compound concentration 2 μM in the plasma solution and final DMSO content 2%. The mixture was incubated at 37° C. After the incubation at 0, 15, 30, 60, and 120 min time points, aliquots of 50 μL samples were quenched with 100 μL of ice-cold acetonitrile with 25 μM of the internal reference (for HPLC analysis), respectively. The quenched samples were centrifuged at 10,000×g, and the supernatant was analyzed by HPLC. The percentage of remaining intact test compound was calculated by (peak area at the specific time point)/(peak area at 0 min)×100. Every sample was assayed three times."}}, "data": [{"smiles": "[2H]C([2H])(F)Sc1cc(NC(=O)c2ccccn2)ccc1Cl", "note": "[Compound 15, N-(4-Chloro-3-((fluoromethyl-d2)thio)phenyl)picolinamide]", "values": [{"measurement": "selectivity among mGluR subtypes", "setting": "[1]", "value": "has selectivity against other mGlu receptors"}, {"measurement": "Log D7.4", "setting": "[2]", "value": 3.82}, {"measurement": "Plasma stability, remaining of the intact test compound", "setting": "[3]; 0 min", "value": "100.00 ± 1.88", "unit": "%"}, {"measurement": "Plasma stability, remaining of the intact test compound", "setting": "[3]; 15 min", "value": "93.46 ± 1.96", "unit": "%"}, {"measurement": "Plasma stability, remaining of the intact test compound", "setting": "[3]; 30 min", "value": "104.21 ± 2.84", "unit": "%"}, {"measurement": "Plasma stability, remaining of the intact test compound", "setting": "[3]; 60 min", "value": "94.54 ± 5.18", "unit": "%"}, {"measurement": "Plasma stability, remaining of the intact test compound", "setting": "[3]; 120 min", "value": "84.52 ± 10.16", "unit": "%"}, {"measurement": "The plasma stability, The intact ± SEM at 120 min (%)", "setting": "[3]; 120 min", "value": "84.5 ± 10.2", "unit": "%"}]}]}
